“And” between values parts separate entries of the source, which are not always exact repeats. Equal entries are not always repeated.
Experiments:
[1] = test system: silverleaf whiteflies; assay: Test Example 1: spray test on cabbage seedlings infested with silverleaf whiteflies; format: in vivo; settings: 50 ppm, total of adults and larvae on cabbage seedlings; for Number of surviving insects/pot after 8 days: 8 days after spray treatment; for Number of surviving insects/pot before: just before treatment
Method: (§1) Cabbage seedlings planted in 3 ounces plastic cup were placed in a net cage containing many living silverleaf whiteflies for 24 hours, so that many silverleaf whiteflies became parasitic on the cabbage seedlings. A designated amount of each of pyriproxyfen EC (commercial name, Lano emulsifiable concentrate : produced by Sumitomo Chemical Co., Ltd.), chlothianidine EC (emulsifiable concentrate prepared by mixing 10 parts of chlothianidine, 8 parts of polyoxyethylenealkyl aryl ether, 2 parts of sodium alkylarylsulfonate and 80 parts of xylene), and the present invention composition prepared according to formulation example 1 was diluted with water, and then sprayed over the cabbage seedlings with a spray gun. The number of silverleaf whiteflies (i.e., the total number of adults and larvae) surviving on the cabbage seedlings was examined just before and after 8 days from the treatment.

[2] = test system: silverleaf whiteflies; assay: Test Example 2: spray test on cabbage seedlings infested with silverleaf whiteflies (10:1 and 1:10 mixtures); format: in vivo; settings: 10 ppm; just before treatment; total of adults and larvae on cabbage seedlings
Method: as §1, with “pyriproxyfen EC.” for “pyriproxyfen EC”, “emulsifiable concentrate:” for “emulsifiable concentrate :”, “prepared by mixing the pyriproxyfen EC with chlothianidine EC at 10:1 and 1:10 by weight” for “prepared according to formulation example 1”

Structure (SMILES) | Number of surviving insects/pot after 8 days [1] | Number of surviving insects/pot before [1] | Number of surviving insects/pot before [2]
CN/C(=N\[N+](=O)[O-])NCc1cnc(Cl)s1 [chlothianidine, (E)-1-(2-chlorothiazol-5-ylmethyl)-3-methyl-2-nitroguanidine] | 70 insects/pot | 66 insects/pot | 
CC(COc1ccc(Oc2ccccc2)cc1)Oc1ccccn1 (centres unmarked) [pyriproxyfen, 4-phenoxyphenyl 2-(2-pyridyloxy)propyl ether] | 21 insects/pot | 65 insects/pot | 81 insects/pot and 62 insects/pot
